Experimental data: publication PMC2651799 (Nucleic Acids Research, 2009)

Target: T1, RmtA (Pseudomonas aeruginosa, UniProt Q8GRA1)
T1 sequence (Q8GRA1 1-251): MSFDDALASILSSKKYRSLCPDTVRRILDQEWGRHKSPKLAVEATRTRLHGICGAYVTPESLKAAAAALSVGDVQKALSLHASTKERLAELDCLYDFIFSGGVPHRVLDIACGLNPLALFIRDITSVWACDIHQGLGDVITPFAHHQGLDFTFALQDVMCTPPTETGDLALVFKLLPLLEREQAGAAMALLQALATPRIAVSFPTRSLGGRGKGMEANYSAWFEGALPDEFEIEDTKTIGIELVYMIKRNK
Type: biochemical

SMILES | IC50 [µM]
Nc1ncnc2c1ncn2[C@@H]1O[C@H](CSCC[C@H](N)C(=O)O)[C@@H](O)[C@H]1O [SAH] | 9.33 ± 0.07
Nc1ncnc2c1ncn2[C@@H]1O[C@H](C[C@@H](N)CC[C@H](N)C(=O)O)[C@@H](O)[C@H]1O [sinefungin] | 19.95 ± 0.09
